Test results published in the supplement of paper PMC10307832.

Experiments:
Assay in all cases: relative viability (nuclei count vs DMSO), 5 days (fraction); higher = more cells survive
Linifanib + Pictilisib = compound: Cc1ccc(F)c(NC(=O)Nc2ccc(-c3cccc4[nH]nc(N)c34)cc2)c1 [Linifanib] + CS(=O)(=O)N1CCN(Cc2cc3nc(-c4cccc5[nH]ncc45)nc(N4CCOCC4)c3s2)CC1 [Pictilisib] (partner 1 µM)
Outline: (§1)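 Lung cancer cell lines in 1536-well plates got either a single drug or a fixed anchor-drug dose together with five library-drug doses (not always all listed) in √10 steps, by pin tool, on the day after seeding. Nuclei were counted after 5 days, and relative viability is the treated-to-vehicle ratio of nuclei counts. Values are medians of duplicate plates.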

Linifanib + Navitoclax = compound: Cc1ccc(F)c(NC(=O)Nc2ccc(-c3cccc4[nH]nc(N)c34)cc2)c1 [Linifanib] + CC1(C)CCC(c2ccc(Cl)cc2)=C(CN2CCN(c3ccc(C(=O)NS(=O)(=O)c4ccc(N[C@H](CCN5CCOCC5)CSc5ccccc5)c(S(=O)(=O)C(F)(F)F)c4)cc3)CC2)C1 [Navitoclax] (partner 0.5 µM)
Outline: as §1

Linifanib + Foretinib = compound: Cc1ccc(F)c(NC(=O)Nc2ccc(-c3cccc4[nH]nc(N)c34)cc2)c1 [Linifanib] + COc1cc2c(Oc3ccc(NC(=O)C4(C(=O)Nc5ccc(F)cc5)CC4)cc3F)ccnc2cc1OCCCN1CCOCC1 [Foretinib] (partner 0.25 µM)
Outline: as §1

Linifanib + Bortezomib = compound: Cc1ccc(F)c(NC(=O)Nc2ccc(-c3cccc4[nH]nc(N)c34)cc2)c1 [Linifanib] + CC(C)C[C@H](NC(=O)[C@H](Cc1ccccc1)NC(=O)c1cnccn1)B(O)O [Bortezomib] (partner 0.002 µM)
Outline: as §1

Linifanib + Alpelisib = compound: Cc1ccc(F)c(NC(=O)Nc2ccc(-c3cccc4[nH]nc(N)c34)cc2)c1 [Linifanib] + Cc1nc(NC(=O)N2CCC[C@H]2C(N)=O)sc1-c1ccnc(C(C)(C)C(F)(F)F)c1 [Alpelisib] (partner 2 µM)
Outline: as §1

Linifanib + Lapatinib = compound: Cc1ccc(F)c(NC(=O)Nc2ccc(-c3cccc4[nH]nc(N)c34)cc2)c1 [Linifanib] + CS(=O)(=O)CCNCc1ccc(-c2ccc3ncnc(Nc4ccc(OCc5cccc(F)c5)c(Cl)c4)c3c2)o1 [Lapatinib] (partner 2 µM)
Outline: as §1

Linifanib + Olaparib = compound: Cc1ccc(F)c(NC(=O)Nc2ccc(-c3cccc4[nH]nc(N)c34)cc2)c1 [Linifanib] + O=C(c1cc(Cc2n[nH]c(=O)c3ccccc23)ccc1F)N1CCN(C(=O)C2CC2)CC1 [Olaparib] (partner 8 µM)
Outline: as §1

Linifanib + Linsitinib = compound: Cc1ccc(F)c(NC(=O)Nc2ccc(-c3cccc4[nH]nc(N)c34)cc2)c1 [Linifanib] + C[C@]1(O)C[C@@H](c2nc(-c3ccc4ccc(-c5ccccc5)nc4c3)c3c(N)nccn32)C1 [Linsitinib] (partner 1 µM)
Outline: as §1

Linifanib + Crizotinib = compound: Cc1ccc(F)c(NC(=O)Nc2ccc(-c3cccc4[nH]nc(N)c34)cc2)c1 [Linifanib] + C[C@@H](Oc1cc(-c2cnn(C3CCNCC3)c2)cnc1N)c1c(Cl)ccc(F)c1Cl [Crizotinib] (partner 1 µM)
Outline: as §1

Linifanib = compound: Cc1ccc(F)c(NC(=O)Nc2ccc(-c3cccc4[nH]nc(N)c34)cc2)c1 [Linifanib]
Outline: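 Vehicle-anchored 1536-well plates of lung cancer cell lines, held overnight at 37 °C, were pinned with five library-drug doses (not always all listed) spaced by √10. No medium change followed over the next 5 days, after which the cells were fixed, permeabilised and Hoechst-stained together and imaged at 4×. Nuclei were counted with MetaXpress, and viability is treated-well nuclei over vehicle-well nuclei, taken as a median across plates. Plates passed with control CV below 25% and at least one doubling.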

Linifanib + Palbociclib = compound: Cc1ccc(F)c(NC(=O)Nc2ccc(-c3cccc4[nH]nc(N)c34)cc2)c1 [Linifanib] + CC(=O)c1c(C)c2cnc(Nc3ccc(N4CCNCC4)cn3)nc2n(C2CCCC2)c1=O [Palbociclib] (partner 0.5 µM)
Outline: as §1

Linifanib + OSI-027 = compound: Cc1ccc(F)c(NC(=O)Nc2ccc(-c3cccc4[nH]nc(N)c34)cc2)c1 [Linifanib] + COc1cccc2cc(-c3nc([C@H]4CC[C@H](C(=O)O)CC4)n4ncnc(N)c34)[nH]c12 [OSI-027] (partner 0.5 µM)
Outline: as §1

Linifanib + Dasatinib = compound: Cc1ccc(F)c(NC(=O)Nc2ccc(-c3cccc4[nH]nc(N)c34)cc2)c1 [Linifanib] + Cc1nc(Nc2ncc(C(=O)Nc3c(C)cccc3Cl)s2)cc(N2CCN(CCO)CC2)n1 [Dasatinib] (partner 0.075 µM)
Outline: as §1

Linifanib + Tozasertib = compound: Cc1ccc(F)c(NC(=O)Nc2ccc(-c3cccc4[nH]nc(N)c34)cc2)c1 [Linifanib] + Cc1cc(Nc2cc(N3CCN(C)CC3)nc(Sc3ccc(NC(=O)C4CC4)cc3)n2)n[nH]1 [Tozasertib] (partner 0.1 µM)
Outline: as §1

Linifanib + Vorinostat = compound: Cc1ccc(F)c(NC(=O)Nc2ccc(-c3cccc4[nH]nc(N)c34)cc2)c1 [Linifanib] + O=C(CCCCCCC(=O)Nc1ccccc1)NO [Vorinostat] (partner 1 µM)
Outline: as §1

Linifanib + Luminespib = compound: Cc1ccc(F)c(NC(=O)Nc2ccc(-c3cccc4[nH]nc(N)c34)cc2)c1 [Linifanib] + CCNC(=O)c1noc(-c2cc(C(C)C)c(O)cc2O)c1-c1ccc(CN2CCOCC2)cc1 [Luminespib] (partner 0.01 µM)
Outline: as §1

Linifanib + Trametinib = compound: Cc1ccc(F)c(NC(=O)Nc2ccc(-c3cccc4[nH]nc(N)c34)cc2)c1 [Linifanib] + CC(=O)Nc1cccc(-n2c(=O)n(C3CC3)c(=O)c3c(Nc4ccc(I)cc4F)n(C)c(=O)c(C)c32)c1 [Trametinib] (partner 0.02 µM)
Outline: as §1

Linifanib + AZD7762 = compound: Cc1ccc(F)c(NC(=O)Nc2ccc(-c3cccc4[nH]nc(N)c34)cc2)c1 [Linifanib] + NC(=O)Nc1cc(-c2cccc(F)c2)sc1C(=O)N[C@H]1CCCNC1 [AZD7762] (partner 0.2 µM)
Outline: as §1

Linifanib + Decitabine = compound: Cc1ccc(F)c(NC(=O)Nc2ccc(-c3cccc4[nH]nc(N)c34)cc2)c1 [Linifanib] + Nc1ncn([C@H]2C[C@H](O)[C@@H](CO)O2)c(=O)n1 [Decitabine] (partner 2 µM)
Outline: as §1

Linifanib + Pemetrexed = compound: Cc1ccc(F)c(NC(=O)Nc2ccc(-c3cccc4[nH]nc(N)c34)cc2)c1 [Linifanib] + Nc1nc2[nH]cc(CCc3ccc(C(=O)N[C@@H](CCC(=O)O)C(=O)O)cc3)c2c(=O)[nH]1 [Pemetrexed] (partner 0.2 µM)
Outline: as §1

Linifanib + Phenformin = compound: Cc1ccc(F)c(NC(=O)Nc2ccc(-c3cccc4[nH]nc(N)c34)cc2)c1 [Linifanib] + N=C(N)NC(=N)NCCc1ccccc1 [Phenformin] (partner 250 µM)
Outline: as §1

EBC-1
relative viability (Linifanib + Pictilisib; first compound 0.03162 µM): 0.372
relative viability (Linifanib + Pictilisib; first compound 0.1 µM): 0.486
relative viability (Linifanib + Pictilisib; first compound 0.3162 µM): 0.477
relative viability (Linifanib + Navitoclax; first compound 0.03162 µM): 0.472
relative viability (Linifanib + Navitoclax; first compound 0.1 µM): 0.412
relative viability (Linifanib + Navitoclax; first compound 0.3162 µM): 0.387
relative viability (Linifanib + Foretinib; first compound 0.03162 µM): 0.115
relative viability (Linifanib + Foretinib; first compound 0.1 µM): 0.103
relative viability (Linifanib + Foretinib; first compound 0.3162 µM): 0.112
relative viability (Linifanib + Bortezomib; first compound 0.03162 µM): 0.551
relative viability (Linifanib + Bortezomib; first compound 0.1 µM): 0.628
relative viability (Linifanib + Bortezomib; first compound 0.3162 µM): 0.574
relative viability (Linifanib + Alpelisib; first compound 0.03162 µM): 0.809
relative viability (Linifanib + Alpelisib; first compound 0.1 µM): 1.06
relative viability (Linifanib + Alpelisib; first compound 0.3162 µM): 0.791
relative viability (Linifanib + Lapatinib; first compound 0.03162 µM): 0.207
relative viability (Linifanib + Lapatinib; first compound 0.1 µM): 0.21
relative viability (Linifanib + Lapatinib; first compound 0.3162 µM): 0.214
relative viability (Linifanib + Olaparib; first compound 0.03162 µM): 0.698
relative viability (Linifanib + Olaparib; first compound 0.1 µM): 0.757
relative viability (Linifanib + Olaparib; first compound 0.3162 µM): 0.73
relative viability (Linifanib + Linsitinib; first compound 0.03162 µM): 0.996
relative viability (Linifanib + Linsitinib; first compound 0.1 µM): 0.864
relative viability (Linifanib + Linsitinib; first compound 0.3162 µM): 0.731
relative viability (Linifanib + Crizotinib; first compound 0.03162 µM): 0.205
relative viability (Linifanib + Crizotinib; first compound 0.1 µM): 0.208
relative viability (Linifanib + Crizotinib; first compound 0.3162 µM): 0.224
relative viability (Linifanib; 0.03162 µM): 1.02
relative viability (Linifanib; 0.1 µM): 1.14
relative viability (Linifanib; 0.3162 µM): 0.969

NCI-H522
relative viability (Linifanib + Palbociclib; first compound 0.03162 µM): 1.05
relative viability (Linifanib + Palbociclib; first compound 0.1 µM): 0.954
relative viability (Linifanib + Palbociclib; first compound 0.3162 µM): 0.995
relative viability (Linifanib + OSI-027; first compound 0.03162 µM): 0.815
relative viability (Linifanib + OSI-027; first compound 0.1 µM): 0.721
relative viability (Linifanib + OSI-027; first compound 0.3162 µM): 0.719
relative viability (Linifanib + Dasatinib; first compound 0.03162 µM): 0.862
relative viability (Linifanib + Dasatinib; first compound 0.1 µM): 0.868
relative viability (Linifanib + Dasatinib; first compound 0.3162 µM): 0.871
relative viability (Linifanib + Tozasertib; first compound 0.03162 µM): 0.556
relative viability (Linifanib + Tozasertib; first compound 0.1 µM): 0.542
relative viability (Linifanib + Tozasertib; first compound 0.3162 µM): 0.474
relative viability (Linifanib + Vorinostat; first compound 0.03162 µM): 0.851
relative viability (Linifanib + Vorinostat; first compound 0.1 µM): 0.88
relative viability (Linifanib + Vorinostat; first compound 0.3162 µM): 0.929
relative viability (Linifanib + Luminespib; first compound 0.03162 µM): 1.18
relative viability (Linifanib + Luminespib; first compound 0.1 µM): 0.98
relative viability (Linifanib + Luminespib; first compound 0.3162 µM): 1.13
relative viability (Linifanib + Trametinib; first compound 0.03162 µM): 0.643
relative viability (Linifanib + Trametinib; first compound 0.1 µM): 0.713
relative viability (Linifanib + Trametinib; first compound 0.3162 µM): 0.736
relative viability (Linifanib + AZD7762; first compound 0.03162 µM): 0.879
relative viability (Linifanib + AZD7762; first compound 0.1 µM): 0.804
relative viability (Linifanib + AZD7762; first compound 0.3162 µM): 0.809
relative viability (Linifanib + Decitabine; first compound 0.03162 µM): 0.613
relative viability (Linifanib + Decitabine; first compound 0.1 µM): 0.703
relative viability (Linifanib + Decitabine; first compound 0.3162 µM): 0.759
relative viability (Linifanib + Olaparib; first compound 0.03162 µM): 0.555
relative viability (Linifanib + Olaparib; first compound 0.1 µM): 0.693
relative viability (Linifanib + Olaparib; first compound 0.3162 µM): 0.667
relative viability (Linifanib + Pemetrexed; first compound 0.03162 µM): 0.945
relative viability (Linifanib + Pemetrexed; first compound 0.1 µM): 0.798
relative viability (Linifanib + Pemetrexed; first compound 0.3162 µM): 1.06
relative viability (Linifanib + Phenformin; first compound 0.03162 µM): 0.716
relative viability (Linifanib + Phenformin; first compound 0.1 µM): 0.647
relative viability (Linifanib + Phenformin; first compound 0.3162 µM): 0.551
relative viability (Linifanib; 0.03162 µM): 0.943
relative viability (Linifanib; 0.1 µM): 1.02
relative viability (Linifanib; 0.3162 µM): 0.995
